Source: patent publication US6291488A, “Preventing protozoal infections” (Glaxo Wellcome Inc., priority 1992, dated 2001)
Several values for one entry are separate records, joined by “and”; a condition that tells them apart may be missing. Equal entries are not always repeated.

Experiments:
[1] = tested on: P. falciparum C2B (isolate resistant to the compound of example 1); format: cell-based; conditions: drug combined with compound of Example 1, positive = synergistic, negative = antagonism, 0 = additive
Protocol: (§1) Antimalarial activity in this system is assessed by inhibition of radiolabelled hypoxanthine incorporation into parasites by graded concentrations of drugs.
(§2) The drugs tested and their solvents are listed below:
(§3) In order to study drug combinations, drug solutions at starting concentrations were combined in various ratios and 1:5,1:2,2:1 and 5:1). […] Serial 1:3 dilutions of the drugs with media were made to fill the 96-well microtitre plate using a 12-channel pipetter. To evaluate drugs classified as dihydrofolic acid reductase (DHFR) inhibitors, modified culture medium was used which contained only physiologic concentrations of folic acid and PABA.
(§4) Individual IC50 s were calculated using the "MINSQ" program from Micromath Scientific Software. Each set of paired data was fitted to the hyperbolic tangent function used by Desjardins.
(§5) An isobologram was constructed by fitting the data to the equation:
(§6) Y1-[Xi /(Xi +e^I *(1-Xi))]
(§7) I=interaction parameter indicating degree of reversal
(§8) Positive values of I indicated a synergistic combination, negative values indicated antagonism and I=O indicated additive interaction.
(§9) The optimum ratio of the combination with proguanil was estimated for each of the three strains of malaria parasite by determining the ratio of the IC50 of proguanil to the IC50 of the compound of Formula (II).

[2] = tested on: P. falciparum D-6 (drug-sensitive but melfloquine resistant D-6 clone); test: In vitro drug combination sensitivity (Desjardins hypoxanthine incorporation), D-6 clone; format: cell-based; conditions: drug combined with compound of Example 1, positive = synergistic, negative = antagonism, 0 = additive
Protocol: as §1, §2, §3, §4, §5, §6, §7, §8, §9

[3] = tested on: Pneumocystis; test: Anti-Pneumocystis activity in vivo, scid mouse model of Pneumocystis pneumonia; design: species or system P. carinii; scid mice; key to Mean Score ±SE: score 0 = no infection, +4 = very heavy infection; conditions: for number of mice with SCORE 0: 0 = no infection; for % of Control: mean score
Protocol: Comparison of anti-Pneumocystis activities in vivo of compound of Example 1 proguanil and combinations thereof
Activities of the compounds and combinations were examined in a scid mouse model of Pneumocystis pneumonia.
The level of infection of mice in each group was measured using standard lung impression smears and immunofluorescence tests. A score was assigned to each mouse where 0=no infection and +4=very heavy infection.

[4] = tested on: T. gondii C56 strain; test: Anti-Toxoplasma activity in vivo, mouse model of T. gondii; design: species or system T. gondii; CBA/CA mice; conditions: oral gavage; for Mean Time to Death: 10 days
Excerpt: Comparison of anti-Toxoplasma activities in vivo of compound of Example 1, proguanil and combinations thereof
Activities of the compounds and combinations were examined in a mouse model of T. gondii, using the increase in time to death and percent survival of the mice as measures of drug activity.
Groups of 10, 20 gm CBA/CA mice were infected orally by gavage with 6 cysts of the C56 strain of T. gondii and drug treatment was started 3 days later and continued for 10 day. All drugs were administered orally by gavage. The following groups were examined:
All animals were examined twice daily for 30 days and all deaths recorded.

[5] = tested on: P. falciparum W-2 (multi-drug resistant W-2 clone); test: In vitro drug combination sensitivity (Desjardins hypoxanthine incorporation), W-2 clone; format: cell-based; conditions: drug combined with compound of Example 1, positive = synergistic, negative = antagonism, 0 = additive
Protocol: as §1, §2, §3, §4, §5, §6, §7
Positive values of I indicated a synergistic combination, negative values indicated antagonism and I=O indicated additive interaction. […]

[6] = 25 mg/kg p.o. daily, +4 = very heavy infection

**Q.** How did the “I (interaction parameter)” value [1] turn out when `[H]/N=C(\N/C(=N/[H])Nc1ccc(Cl)cc1)NC(C)C` [Proguanil] was run?
**A.** 2.56

**Q.** And the “I (interaction parameter)” value [2]?
**A.** 2.56

**Q.** And the “Mean Score ±SE” value ([3]; 25 mg/kg p.o. daily)?
**A.** 3.80 ± 0.13

**Q.** And the “No. Infected/No. Examined” value ([3]; 25 mg/kg p.o. daily)?
**A.** 10/10

**Q.** And the “number of mice with SCORE +1” value ([3]; 25 mg/kg p.o. daily)?
**A.** 0

**Q.** And the “number of mice with SCORE +3” value ([3]; 25 mg/kg p.o. daily)?
**A.** 0

**Q.** What about the “number of mice with SCORE +4” value ([3]; 25 mg/kg p.o. daily) of the same compound?
**A.** 2

**Q.** And the “number of mice with SCORE 0” value ([3]; 25 mg/kg p.o. daily)?
**A.** 0

**Q.** What about the “number of mice with SCORE +4” value [3, 6] of the same compound?
**A.** 8

**Q.** What about the “prophylaxis of PCP in the scid mouse” value ([3]; alone at 25 mg/kg/day) of the same compound?
**A.** ineffective

**Q.** And the “% of Control” value ([3]; 25 mg/kg p.o. daily)?
**A.** 85%

**Q.** And the survivors ([4]; 25 mg/kg)?
**A.** no survivors

**Q.** What about the toxicity to mice ([4]; 25 mg/kg) of the same compound?
**A.** exhibits signs of toxicity

**Q.** What about the “Mean Time to Death” value ([4]; 25 mg/kg) of the same compound?
**A.** 9.0 days and 9 days

**Q.** For `CN(C)C1C(=O)C(C(N)=O)=C(O)C2(O)C(=O)C3=C(O)c4c(O)cccc4C(C)(O)C3CC12` (centres unmarked) [Tetracycline], which “I (interaction parameter)” value [5] is on record?
**A.** 1.27

**Q.** What about the “I (interaction parameter)” value [2] of the same compound?
**A.** 1.11

**Q.** `CCn1cc(C(=O)O)c(=O)c2cc(F)c(N3CCNCC3)cc21` [Norfloxacin] was tested. Which “I (interaction parameter)” value [5] did it give?
**A.** 1.02

**Q.** How did the “I (interaction parameter)” value [2] turn out when `Cc1nc(C)c(Cl)c(O)c1Cl` [Clopidol] was run?
**A.** 0.73

**Q.** With `Cc1cc(NS(=O)(=O)c2ccc(N)cc2)no1` [Sulfamethoxazole] as the compound, how does the “I (interaction parameter)” value [5] read?
**A.** 2.75

**Q.** Which “I (interaction parameter)” value [5] does the source give for `CCc1nc(N)nc(N)c1-c1ccc(Cl)cc1` [Pyrimethamine] here?
**A.** 0.36

**Q.** What about the “I (interaction parameter)” value [1] of the same compound?
**A.** -0.48

**Q.** How did the “Mean Score ±SE” value ([3]; 25 mg/kg p.o. daily) turn out when `O=C1C(O)=C([C@H]2CC[C@H](c3ccc(Cl)cc3)CC2)C(=O)c2ccccc21` [Atovaquone, 2-[4-(4-chlorophenyl)cyclohexyl]-3-hydroxy-1,4-naphthoquinone] was run?
**A.** 3.10 ± 0.17

**Q.** And the “No. Infected/No. Examined” value ([3]; 25 mg/kg p.o. daily)?
**A.** 10/10

**Q.** And the “number of mice with SCORE +1” value ([3]; 25 mg/kg p.o. daily)?
**A.** 0

**Q.** And the “number of mice with SCORE +3” value ([3]; 25 mg/kg p.o. daily)?
**A.** 1

**Q.** What about the “number of mice with SCORE +4” value ([3]; 25 mg/kg p.o. daily) of the same compound?
**A.** 7

**Q.** What about the “number of mice with SCORE 0” value ([3]; 25 mg/kg p.o. daily) of the same compound?
**A.** 0

**Q.** What about the “number of mice with SCORE +4” value [3, 6] of the same compound?
**A.** 2

**Q.** And the “Mean Score ±SE” value ([3]; 50 mg/kg p.o. daily)?
**A.** 2.50 ± 0.16

**Q.** And the “No. Infected/No. Examined” value ([3]; 50 mg/kg p.o. daily)?
**A.** 10/10

**Q.** And the “number of mice with SCORE +1” value ([3]; 50 mg/kg p.o. daily)?
**A.** 0

**Q.** And the “number of mice with SCORE +3” value ([3]; 50 mg/kg p.o. daily)?
**A.** 5

**Q.** And the “number of mice with SCORE +4” value ([3]; 50 mg/kg p.o. daily)?
**A.** 5

**Q.** And the “number of mice with SCORE 0” value ([3]; 50 mg/kg p.o. daily)?
**A.** 0

**Q.** And the “number of mice with SCORE +4” value ([3]; 50 mg/kg p.o. daily, +4 = very heavy infection)?
**A.** 0

**Q.** And the “infection score (in words)” value ([3]; dosed alone)?
**A.** reductions in the infection score

**Q.** And the “% of Control” value ([3]; 25 mg/kg p.o. daily)?
**A.** 84%

**Q.** And the “% of Control” value ([3]; 50 mg/kg p.o. daily)?
**A.** 68%

**Q.** And the percent survival ([4]; 10 mg/kg)?
**A.** 10%

**Q.** What about the “Mean Time to Death” value ([4]; 10 mg/kg) of the same compound?
**A.** 20.1 days

**Q.** What about the percent survival ([4]; 25 mg/kg) of the same compound?
**A.** 10%

**Q.** And the “Mean Time to Death” value ([4]; 25 mg/kg)?
**A.** 24.1 days

**Q.** `Oc1ncnc2[nH]ncc12` [Allopurinol] was tested. Which “I (interaction parameter)” value [5] did it give?
**A.** 1.14

**Q.** And the “I (interaction parameter)” value [2]?
**A.** 0.43

**Q.** Which “I (interaction parameter)” value [2] does the source give for `C[C@H]1[C@H](OC(=O)CCC(=O)O)O[C@@H]2O[C@@]3(C)CC[C@H]4[C@H](C)CC[C@@H]1[C@@]24OO3` [Artesunic acid] here?
**A.** -0.18

**Q.** How did the “I (interaction parameter)” value [5] turn out when `COc1cc(NC(C)CCCN)c2ncccc2c1` (centres unmarked) [Primaquine] was run?
**A.** -0.79

**Q.** What does the source list for `COc1cc(Cc2cnc(N)nc2N)cc(OC)c1OC` [Trimethoprim]?
**A.** I (interaction parameter) [5]: 1.27; I (interaction parameter) [1]: 0.58

**Q.** `OC(c1cc(C(F)(F)F)nc2c(C(F)(F)F)cccc12)C1CCCCN1` (centres unmarked) [Mefloquine] was tested. Which “I (interaction parameter)” value [5] did it give?
**A.** -1.19

**Q.** For `CC1(C)N=C(N)N=C(N)N1OCCCOc1cc(Cl)c(Cl)cc1Cl` [WR99210], which “I (interaction parameter)” value [5] is on record?
**A.** 0.02

**Q.** Which “I (interaction parameter)” value [5] does the source give for `CC1(C)N=C(N)N=C(N)N1c1ccc(Cl)cc1` [Cycloguanil] here?
**A.** 2.21

**Q.** What about the “I (interaction parameter)” value [2] of the same compound?
**A.** 1.66

**Q.** Which results are given for `CCN(CC)CCCC(C)Nc1ccnc2cc(Cl)ccc12` (centres unmarked) [Chloroquine]?
**A.** I (interaction parameter) [5]: -1.84; I (interaction parameter) [2]: -1.40

**Q.** For `Nc1ccc(S(=O)(=O)c2ccc(N)cc2)cc1` [Dapsone], which “I (interaction parameter)” value [5] is on record?
**A.** -0.39

**Q.** Which “I (interaction parameter)” value [2] does the source give for `CC(C)NC(=N)NC(=N)NOCCCOc1cc(Cl)c(Cl)cc1Cl` [PS-15] here?
**A.** -0.74
